Measurements taken from PMC7053711, “A G protein–coupled receptor mediates neuropeptide-induced oocyte maturation in the jellyfish Clytia” (PLoS Biology, 2020).
Entries after “also recorded” stand apart in the source; their conditions may differ. Peptide text beside a SMILES is read from it.

Key:
[1] = test system: Clytia MIHR; experiment: GPCR deorphanization assay, luminescence response to peptides at 1 μM (CHO-K1 cells, Gα-16, GFP-apoaequorin); assay type: cell-based, Clytia hemisphaerica; settings: peptide 1E-6M, normalised to Platynereis FLamide receptor + 1 μM AKYFL-NH2, n = 3
Excerpt: We used a cell culture–based GPCR deorphanization assay to identify the MIH receptor from our candidate shortlist. cDNAs for each candidate were transfected into Chinese Hamster ovary K1 (CHO-K1) cells along with the promiscuous Gα protein Gα-16, and an aequorin-GFP luminescence reporter that measures Ca^2+ mobilization downstream of this heterologous Gα protein [27, 28]. We first screened the 16 candidate Clytia GPCRs against a mixture of 33 synthetic amidated peptides (including MIHs) predicted to be generated from previously identified putative Clytia neuropeptide precursors and one additional one identified from transcriptome data. Given our imperfect knowledge of pro-peptide processing in cnidarians, some of the synthetic peptides may not correspond to endogenous peptides. Only one of the 16 GPCRs was activated by this peptide mixture. This receptor responded well to all 4 synthetic Clytia MIH tetrapeptides, as well as to related Cladonema MIH peptides that can also activate Clytia oocyte maturation, but not to other Clytia peptide mixtures or poorly active MIH penta-/tripeptides. We termed this Clytia GPCR the Maturation Inducing Hormone Receptor (MIHR). The activity of individual peptides at 1 μM to stimulate the MIHR closely matched their in vivo ability to induce oocyte maturation (Fig 1B).
Cell culture GPCR ligand response assays were performed as described. Briefly, CHO-K1 cells were cultured in Ham’s F12 Nut Mix medium (Thermo Fisher Scientific) with 10% foetal bovine serum. Cells were seeded in 96-well plates at approximately 10,000 cells/well and transfected the following day with pcDNA3.1(+) plasmids encoding each of the 16 candidate Clytia GPCRs (S2 Text), the promiscuous Gα-16 protein [65], and a reporter construct GFP-apoaequorin [66] (60 ng each) using the transfection reagent TurboFect (Thermo Fisher Scientific). After 2 days of expression, the medium was removed and replaced with Hank’s balanced salt solution (HBSS) supplemented with 1.8 mM Ca2+, 10 mM glucose, and […] coelenterazine h (Promega, Madison, WI). After incubation at 37 °C for 2 hours, cells were tested by adding synthetic peptides (GenScript) in HBSS supplemented with 1.8 mM Ca2^+ and 10 mM glucose. A list of all synthetic peptides used is provided in S2 Table. Luminescence was recorded for 45 seconds in a plate reader (BioTek Synergy Mx or Synergy H4; BioTek, Winooski, VT). Data were integrated over the 45-second measurement period and recorded as technical triplicates in each case. Data were normalized using the response of Platynereis FLamide receptor to 1 μM AKYFL-NH2 [28]. Dose–response curves were obtained using concentrations between 0.01 nM and 100 μM for each peptide. Data for dose–response curves were recorded in triplicate for each concentration and the experiment was repeated independently 3 times. Dose–response curves were fitted with a four-parameter curve using Prism 6 (GraphPad, La Jolla, CA) and were normalized to the calculated upper plateau values (100% activation).
Supplementary file pbio.3000614.s011.xlsx: S1 Data Numerical data corresponding to Fig 1B. Raw luminescence values obtained in triplicate for each of the neuropeptide combinations tested against the MIHR in the deorphanization assay are provided. In the right-hand table, the raw luminescence values obtained in quadruple for the positive and negative controls are provided. In the lower table, means and standard errors of the mean of the luminescence values obtained for each neuropeptide combination and controls are also shown, as well as the values normalized to the positive control, which were used to prepare the graph shown in Fig 1B. MIHR, MIH receptor. (XLSX) Click here for additional data file.

[2] = test system: wild-type (WT) isolated female gonads; experiment: Gonad spawning assay, wild-type isolated gonads; set-up: species or system Clytia hemisphaerica
Method: (§1) We performed a series of oocyte maturation and spawning assays, comparing the responses of wild-type and MIHR mutant isolated gonads and oocytes to different stimuli (Fig 4).
(§2) Sexually mature MIHR mutant medusae from colonies n5-13 and n5-23 and wild-type medusae were cultured on the same day–night cycle. Individual gonads were dissected in the evening after afternoon spawning. To test the light response, one group of each was transferred to 100 μL MFSW in wells of 96-well plastic plates, covered overnight, and re-exposed to white light the following day. To test responses to MIH and cAMP, other groups of dissected gonads were cultured overnight in constant light, then transferred to 96-well plastic plates for two hours. MIH was added to wells as an equal volume of 200 nM WPRPamide (GenScript) stock in MFSW was added to give a final concentration of 100 nM. Alternatively, a stock of 20 mM bromo adenosine 3′,5′cyclic monophosphate (Br-cAMP–Fluka; Sigma Aldrich) in distilled water was added to give a final concentration of 4 mM. Gonads were washed after 5 minutes incubation in Br-cAMP. Oocyte maturation was scored after 30 minutes as germinal vesicle breakdown (GVBD), i.e., visible dissolution of the oocyte nuclear membrane upon entry into M phase, which in all cases was followed by spawning about 1 hour later.
(§3) Supplementary file pbio.3000614.s013.xlsx: S3 Data Numerical data corresponding to Fig 4A and 4C. The first tab collects all the raw data from 3 independent gonad spawning assays. Information corresponding to the Fisher exact tests is also shown. […] The means and standard deviations were used to prepare the graph in Fig 4C. Information corresponding to the Fisher exact tests is also shown. (XLSX) Click here for additional data file.

[3] = test system: MIHR mutant (n5-23, n5-13) isolated female gonads; experiment: Gonad spawning assay, MIHR mutant isolated gonads; set-up: species or system Clytia hemisphaerica; settings: for Gonads spawning (number) / Percentage of spawning gonads: 0,1uM WPRPa, MIH R K.O.
Method: as §1, §2, §3

[4] = 0,1uM WPRPa, wild type, replicate 1, total 22
[5] = 0,1uM WPRPa, wild type, replicate 2, total 24
[6] = 0,1uM WPRPa, wild type, replicate 3, total 18
[7] = WPRPa, pooled n=64, Fisher exact test vs MIHR KO significant at p < .01
[8] = WPRPa, pooled n=82, Fisher exact test vs WT significant at p < .01

N=C(N)NCCC[C@H](NC(=O)[C@@H]1CCCN1C(=O)[C@@H](N)Cc1c[nH]c2ccccc12)C(=O)N1CCC[C@H]1C(N)=O [WPRPa] (H-WPRP-NH2; N-terminus assumed)
Normalised response (to positive control), mean [1]: 0.381 | Percentage of spawning gonads, Mean ([2]; 0,1uM WPRPa, wild type, mean of 3 replicates, Desvest 7.87296): 95.4545 | Gonads spawning (number) [2, 4]: 19 | Percentage of spawning gonads [2, 4]: 86.3636 | Gonads spawning (number) [2, 5]: 24 | Percentage of spawning gonads [2, 5]: 100 | Gonads spawning (number) [2, 6]: 18 | Percentage of spawning gonads [2, 6]: 100 | Non-spawning gonads, WT NO [2, 7]: 3 | Spawning gonads, WT YES [2, 7]: 61 | oocyte maturation and spawning of WT gonads ([2]; isolated WT gonads, 100 nM WPRPamide): underwent oocyte maturation and spawning | Gonads spawning (number) ([3]; replicate 1, total 29): 0 | Percentage of spawning gonads ([3]; replicate 1, total 29): 0 | Gonads spawning (number) ([3]; replicate 2, total 29): 0 | Percentage of spawning gonads ([3]; replicate 2, total 29): 0 | Gonads spawning (number) ([3]; replicate 3, total 24): 0 | Percentage of spawning gonads ([3]; replicate 3, total 24): 0 | Percentage of spawning gonads (summary) ([3]; WPRPa, MIHR K.O., summary of 3 replicates): 0 | Non-spawning gonads, MIHR KO NO [3, 8]: 82 | Spawning gonads, MIHR KO YES [3, 8]: 0 | oocyte maturation and spawning of MIHR mutant gonads, MIH treatment ([3]; isolated MIHR mutant gonads, 100 nM WPRPamide): MIHR mutant gonads did not respond; also recorded: No oocyte maturation or spawning was observed
